These results are taken from publication PMC10622836, “Crystal structure of histone deacetylase 6 complexed with (R)-lipoic acid, an essential cofactor in central carbon metabolism” (The Journal of Biological Chemistry, 2023).

The term Kd denotes the equilibrium constant for the complex coming apart. Read a low Kd as higher affinity.

The assay has as its target T1, HDAC6 (histone deacetylase 6) (Danio rerio, UniProt F8W4B7).
T1 construct: catalytic domain 2
T1 sequence (F8W4B7 440-798 limits assumed): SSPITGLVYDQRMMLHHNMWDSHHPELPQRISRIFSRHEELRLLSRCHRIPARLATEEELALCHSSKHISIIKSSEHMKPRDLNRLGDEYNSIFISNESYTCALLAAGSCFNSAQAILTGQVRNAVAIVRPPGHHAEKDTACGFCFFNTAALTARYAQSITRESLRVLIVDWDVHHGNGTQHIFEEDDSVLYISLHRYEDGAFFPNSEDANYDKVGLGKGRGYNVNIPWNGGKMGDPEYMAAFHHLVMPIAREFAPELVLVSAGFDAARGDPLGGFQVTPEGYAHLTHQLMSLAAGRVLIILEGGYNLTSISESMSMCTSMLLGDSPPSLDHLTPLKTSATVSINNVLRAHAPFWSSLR
The assay can be described thus: X-ray crystal structure ([…] Å) and ITC. It counts as binding.

In turn, `O=C(O)CCCC[C@@H](S)CCS` [(R)-dihydrolipoic acid] returned a Kd of 350 nM.
